The values below come from US20240327364A1, “THERAPEUTIC TARGETING OF GPR68 TO INDUCE FERROPTOSIS” (University Of Maryland, Baltimore, priority 2023, published 2024).

For assay [1], the target named is T1, ACVRLI (Homo sapiens, UniProt P37023).
T1 construct: purchased DiscoveRx
The experiment in a line: KinomeScan. Format: binding. Conditions: read-out: % Control.

Assay [2] has as its target T2, CDC2L1 (Homo sapiens, UniProt P21127).
T2 construct: purchased DiscoveRx (KinomeScan service)
The assay is described as follows: KinomeScan. Type of assay: binding. Conditions: read-out: % Control.

In assay [3] the target is CHEK2 (Homo sapiens, UniProt O96017). The assay is described as follows: KinomeScan. Format: binding. Conditions: read-out: % Control.
For assay [4], the target named is T3, DCAMKL2 (Homo sapiens, UniProt Q8N568).
T3 construct: purchased DiscoveRx (Fremont, CA), KinomeScan service
The experiment in a line: KinomeScan. Type of assay: binding. To be noted: read-out: % Control.

Assay [5] has as its target T4, ERK1 (Homo sapiens, UniProt P27361).
T4 construct: purchased DiscoveRx (Fremont, CA)
The assay is described as follows: KinomeScan. To be noted: read-out: % Control. Type of assay: binding.

Assay [6] has as its target T5, FLT3(D835H) (Homo sapiens, UniProt P36888, D835H).
T5 construct: purchased DiscoveRx (Fremont, CA)
The assay is described as follows: KinomeScan. Type of assay: binding. Conditions: read-out: % Control.

For assay [7], the target named is T6, JNK3 (Homo sapiens, UniProt P53779).
T6 construct: purchased DiscoveRx
The experiment in a line: KinomeScan. To be noted: read-out: % Control. Format: binding.

Assay [8] addresses T7, LATS2 (Homo sapiens, UniProt Q9NRM7).
T7 construct: purchased DiscoveRx
The experiment in a line: KinomeScan. Format: binding. To be noted: read-out: % Control.

The target in assay [9] is T8, MEK4 (Homo sapiens, UniProt P45985).
T8 construct: purchased DiscoveRx (Fremont, CA)
The experiment in a line: KinomeScan. To be noted: read-out: % Control. Format: binding.

Assay [10] addresses T9, NEK1 (Homo sapiens, UniProt Q96PY6).
T9 construct: purchased DiscoveRx
The experiment in a line: KinomeScan. Conditions: read-out: % Control. Format: binding.

Assay [11] deals with T10, p38-gamma (Homo sapiens, UniProt P53778).
T10 construct: purchased DiscoveRx
The experiment in a line: KinomeScan. Conditions: read-out: % Control. Type of assay: binding.

Assay [12] deals with T11, PAK1 (Homo sapiens, UniProt Q13153).
T11 construct: purchased DiscoveRx
The assay is described as follows: KinomeScan. Format: binding. Conditions: read-out: % Control.

The target of assay [13] is T12, PAK7 (Homo sapiens, UniProt Q9P286).
T12 construct: purchased DiscoveRx
The assay is described as follows: KinomeScan. Format: binding. To be noted: read-out: % Control.

Assay [14] addresses T13, PIK3CD (Homo sapiens, UniProt O00329).
T13 construct: purchased DiscoveRx (Fremont, CA)
The assay is described as follows: KinomeScan. Type of assay: binding. Conditions: read-out: % Control.

Assay [15] has as its target T14, PKAC-beta (Homo sapiens, UniProt P22694).
T14 construct: purchased DiscoveRx (Fremont, CA)
The experiment in a line: KinomeScan. Type of assay: binding. To be noted: read-out: % Control.

Assay [16] concerns the target T15, PYK2 (Homo sapiens, UniProt Q14289).
T15 construct: purchased DiscoveRx (Fremont, CA)
The experiment in a line: KinomeScan. Type of assay: binding. To be noted: read-out: % Control.

The target in assay [17] is T16, SBK1 (Homo sapiens, UniProt Q52WX2).
T16 construct: purchased DiscoveRx (Fremont, CA)
T16 sequence (Q52WX2 whole entry): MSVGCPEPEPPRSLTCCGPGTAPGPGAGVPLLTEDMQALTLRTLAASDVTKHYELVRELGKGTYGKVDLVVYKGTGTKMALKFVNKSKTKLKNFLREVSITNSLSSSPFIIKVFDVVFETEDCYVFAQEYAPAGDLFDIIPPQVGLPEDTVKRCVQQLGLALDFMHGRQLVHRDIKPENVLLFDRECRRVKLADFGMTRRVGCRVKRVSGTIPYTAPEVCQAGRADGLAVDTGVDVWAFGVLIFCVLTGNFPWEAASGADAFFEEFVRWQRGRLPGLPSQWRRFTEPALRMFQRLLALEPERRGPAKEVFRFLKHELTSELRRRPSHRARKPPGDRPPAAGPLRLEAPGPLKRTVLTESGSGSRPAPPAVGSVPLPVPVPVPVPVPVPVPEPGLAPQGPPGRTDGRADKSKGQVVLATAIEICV
The assay is described as follows: KinomeScan. To be noted: read-out: % Control. Format: binding.

In assay [18] the target is T17, TAK1 (Homo sapiens, UniProt O43318).
T17 construct: purchased DiscoveRx (Fremont, CA)
The assay is described as follows: KinomeScan. To be noted: read-out: % Control. Format: binding.

For assay [19], the target named is T18, TGFBR1 (Homo sapiens, UniProt P36897).
T18 construct: purchased DiscoveRx (Fremont, CA)
The assay is described as follows: KinomeScan. Format: binding. Conditions: read-out: % Control.

In assay [20] the target is T19, ULK2 (Homo sapiens, UniProt Q8IYT8).
T19 construct: purchased DiscoveRx
The experiment in a line: KinomeScan. To be noted: read-out: % Control. Type of assay: binding.

Assay [21] deals with T20, ADRA1B (Homo sapiens, UniProt P35368).
T20 construct: host or cells: Chem-1 cells with promiscuous Gα15
T20 sequence (P35368 whole entry, species assumed): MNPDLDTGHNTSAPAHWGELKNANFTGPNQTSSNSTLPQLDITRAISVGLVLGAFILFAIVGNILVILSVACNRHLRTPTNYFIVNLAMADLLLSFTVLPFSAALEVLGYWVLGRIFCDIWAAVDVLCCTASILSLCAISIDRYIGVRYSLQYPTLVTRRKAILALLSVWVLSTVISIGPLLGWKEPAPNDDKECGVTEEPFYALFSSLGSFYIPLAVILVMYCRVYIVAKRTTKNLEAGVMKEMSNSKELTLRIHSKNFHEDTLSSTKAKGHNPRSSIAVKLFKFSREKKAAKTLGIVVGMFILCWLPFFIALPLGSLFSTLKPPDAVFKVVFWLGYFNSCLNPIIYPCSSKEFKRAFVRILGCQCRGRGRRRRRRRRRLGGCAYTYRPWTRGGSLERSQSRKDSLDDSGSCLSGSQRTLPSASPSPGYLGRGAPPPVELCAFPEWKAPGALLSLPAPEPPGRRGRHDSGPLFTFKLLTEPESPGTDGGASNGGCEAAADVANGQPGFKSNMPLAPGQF
The experiment in a line: GPCR Profiler. Format: cell-based.

Assay [22] concerns the target T21, CCR3 (Homo sapiens, UniProt P51677).
T21 construct: host or cells: Chem-1 cells with Gα15
The experiment in a line: GPCR Profiler. Format: cell-based.

For assay [23], the target named is T22, CX3CR1 (Homo sapiens, UniProt P49238).
T22 construct: host or cells: Chem-1 cells with Gα15
T22 sequence (P49238 whole entry, species assumed): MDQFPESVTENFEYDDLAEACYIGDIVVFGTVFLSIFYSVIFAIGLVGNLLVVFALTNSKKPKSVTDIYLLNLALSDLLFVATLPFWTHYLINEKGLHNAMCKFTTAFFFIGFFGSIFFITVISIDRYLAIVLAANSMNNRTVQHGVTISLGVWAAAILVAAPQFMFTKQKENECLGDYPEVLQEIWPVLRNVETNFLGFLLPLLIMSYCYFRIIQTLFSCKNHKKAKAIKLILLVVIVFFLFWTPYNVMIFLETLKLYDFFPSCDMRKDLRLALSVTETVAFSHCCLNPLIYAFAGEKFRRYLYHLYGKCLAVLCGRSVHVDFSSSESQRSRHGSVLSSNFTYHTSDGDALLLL
The assay is described as follows: GPCR Profiler. Format: cell-based.

Assay [24] addresses T23, FPR2 (Homo sapiens, UniProt P25090).
T23 construct: host or cells: Chem-1 cells expressing Gα15
The experiment in a line: GPCR Profiler. Format: cell-based.

For assay [25], the target named is T24, H1 (Homo sapiens, UniProt P35367).
T24 construct: host or cells: Chem-1 cells with promiscuous Gα15
T24 sequence (P35367 whole entry): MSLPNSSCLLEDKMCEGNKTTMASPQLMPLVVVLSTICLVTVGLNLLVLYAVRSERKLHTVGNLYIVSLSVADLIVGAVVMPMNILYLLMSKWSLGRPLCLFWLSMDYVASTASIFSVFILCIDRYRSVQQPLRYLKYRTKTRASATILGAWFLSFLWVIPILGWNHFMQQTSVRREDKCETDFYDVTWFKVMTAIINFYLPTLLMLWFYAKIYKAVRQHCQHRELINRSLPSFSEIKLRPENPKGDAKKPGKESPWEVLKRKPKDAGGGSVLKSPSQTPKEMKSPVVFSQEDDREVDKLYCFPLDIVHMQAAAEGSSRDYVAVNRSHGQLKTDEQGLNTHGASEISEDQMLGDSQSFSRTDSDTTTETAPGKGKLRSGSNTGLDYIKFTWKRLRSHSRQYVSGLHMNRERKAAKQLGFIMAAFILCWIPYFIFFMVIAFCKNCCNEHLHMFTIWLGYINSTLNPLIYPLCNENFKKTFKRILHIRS
The experiment in a line: GPCR Profiler. Format: cell-based.

In assay [26] the target is T25, OT (Homo sapiens, UniProt P30559).
T25 construct: host or cells: Chem-1 cells expressing Gα15
T25 sequence (P30559 whole entry): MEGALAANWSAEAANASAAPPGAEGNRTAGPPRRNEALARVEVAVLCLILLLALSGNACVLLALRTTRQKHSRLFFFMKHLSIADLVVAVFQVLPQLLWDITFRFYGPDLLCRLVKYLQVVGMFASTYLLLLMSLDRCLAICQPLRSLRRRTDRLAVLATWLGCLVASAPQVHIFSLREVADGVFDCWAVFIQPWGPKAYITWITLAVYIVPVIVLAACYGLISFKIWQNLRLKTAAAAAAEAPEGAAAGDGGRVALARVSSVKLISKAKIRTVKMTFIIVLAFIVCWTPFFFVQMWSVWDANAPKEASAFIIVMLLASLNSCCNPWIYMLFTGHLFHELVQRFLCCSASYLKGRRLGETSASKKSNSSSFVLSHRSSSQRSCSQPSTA
The experiment in a line: GPCR Profiler. Format: cell-based.

The target of assay [27] is T26, P2Y4 (Homo sapiens, UniProt P51582).
T26 construct: host or cells: Chem-1 cells with Gα15
T26 sequence (P51582 whole entry, species assumed): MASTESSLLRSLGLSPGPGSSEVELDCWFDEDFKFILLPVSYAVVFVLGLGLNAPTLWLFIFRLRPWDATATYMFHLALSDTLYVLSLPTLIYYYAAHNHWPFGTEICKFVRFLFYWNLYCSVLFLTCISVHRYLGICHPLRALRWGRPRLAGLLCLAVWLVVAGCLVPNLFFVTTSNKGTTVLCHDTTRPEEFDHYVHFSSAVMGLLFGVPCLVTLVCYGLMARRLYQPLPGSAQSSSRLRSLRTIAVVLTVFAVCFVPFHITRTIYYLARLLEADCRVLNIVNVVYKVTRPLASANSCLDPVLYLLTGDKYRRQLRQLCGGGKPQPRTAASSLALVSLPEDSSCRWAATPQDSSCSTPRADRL
The assay is described as follows: GPCR Profiler. Format: cell-based.

Assay [28] addresses T27, PAC1 (Homo sapiens, UniProt P41586).
T27 construct: host or cells: Chem-1 cells with Gα15
The experiment in a line: GPCR Profiler. Format: cell-based.

For assay [29], the target named is T28, S1P5 (Homo sapiens, UniProt Q9H228).
T28 construct: host or cells: Chem-1 cells with Gα15
T28 sequence (Q9H228 whole entry, species assumed): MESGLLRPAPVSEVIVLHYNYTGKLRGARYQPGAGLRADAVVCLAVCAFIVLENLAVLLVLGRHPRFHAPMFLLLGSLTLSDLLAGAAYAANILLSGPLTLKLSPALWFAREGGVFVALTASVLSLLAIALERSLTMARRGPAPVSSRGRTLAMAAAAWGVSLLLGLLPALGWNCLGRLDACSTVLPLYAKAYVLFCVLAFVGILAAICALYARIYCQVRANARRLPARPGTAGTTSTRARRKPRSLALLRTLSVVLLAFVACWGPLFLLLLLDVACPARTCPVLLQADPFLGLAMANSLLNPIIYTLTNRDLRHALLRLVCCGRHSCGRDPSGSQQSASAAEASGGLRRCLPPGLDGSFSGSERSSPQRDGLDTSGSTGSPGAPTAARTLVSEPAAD
The assay is described as follows: GPCR Profiler. Format: cell-based.

For assay [30], the target named is T29, 336X-GFP (GPR68 truncation variant) (Homo sapiens, UniProt Q15743).
T29 construct: while the full-length (GPR68-GFP) internalizes in response to stimulation; expressed in transfected cells; host or cells: HEK293T
The assay is described as follows: SRE-luciferase assay, 336X-GFP transfected HEK293T cells. Type of assay: cell-based. To be noted: OGM 10 μM. The method, then: 12-well plates of cells were transfected with 1 μg DNA using Lipofectamine 3000 with sre:luciferase and either the vector backbone, GFP, GPR68, GPR68-GFP, GPR4, or 336X-GFP. After 3 days, these cells were then lysed, and cell extracts were subjected to Steady-Glo luciferase assay (Promega™) according to the manufacturer's instructions. The results were normalized to cell titer, as determined using Cell Titer-Glo luminescence assay (Promega™). For some procedure, the cells were treated in serum-free medium, and were lysed on the third day.
Loss of internalization can indicate loss of activity or loss of the ability to internalize through beta-arrestin. […] Compared to GFP controls, GPR68-GFP and 336X-GFP transfected cells had higher levels of activity. (n=3 biological replicates done in triplicate). Furthermore, the activity of the truncation variant was still inhibited by OGM. […]

Assay [31] has as its system A2058. The experiment in a line: Scratch assay. Format: cell-based, human. Conditions: 20 hours, OGM2 5 uM.

T27 sequence (P41586 21-468): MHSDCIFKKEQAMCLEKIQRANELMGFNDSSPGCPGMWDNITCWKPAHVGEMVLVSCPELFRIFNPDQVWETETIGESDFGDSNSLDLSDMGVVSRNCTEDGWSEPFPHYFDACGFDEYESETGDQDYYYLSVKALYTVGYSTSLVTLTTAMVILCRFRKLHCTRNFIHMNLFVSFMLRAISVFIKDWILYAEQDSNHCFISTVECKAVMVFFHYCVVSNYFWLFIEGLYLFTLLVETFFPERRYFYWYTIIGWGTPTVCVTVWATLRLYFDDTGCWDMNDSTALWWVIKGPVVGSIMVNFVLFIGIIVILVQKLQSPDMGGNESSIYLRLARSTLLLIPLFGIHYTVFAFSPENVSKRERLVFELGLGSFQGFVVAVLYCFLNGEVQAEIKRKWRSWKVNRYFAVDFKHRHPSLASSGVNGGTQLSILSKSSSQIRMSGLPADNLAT
T23 sequence (P25090 whole entry): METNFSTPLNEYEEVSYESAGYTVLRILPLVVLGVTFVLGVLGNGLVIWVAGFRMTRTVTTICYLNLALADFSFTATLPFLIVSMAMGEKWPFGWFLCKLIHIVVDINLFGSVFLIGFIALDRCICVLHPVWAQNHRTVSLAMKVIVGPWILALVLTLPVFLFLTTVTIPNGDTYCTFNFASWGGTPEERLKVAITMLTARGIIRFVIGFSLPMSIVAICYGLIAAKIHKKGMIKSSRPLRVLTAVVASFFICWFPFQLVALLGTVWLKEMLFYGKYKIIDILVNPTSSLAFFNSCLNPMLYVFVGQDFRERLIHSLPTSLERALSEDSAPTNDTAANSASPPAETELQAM
T21 sequence (P51677 whole entry, species assumed): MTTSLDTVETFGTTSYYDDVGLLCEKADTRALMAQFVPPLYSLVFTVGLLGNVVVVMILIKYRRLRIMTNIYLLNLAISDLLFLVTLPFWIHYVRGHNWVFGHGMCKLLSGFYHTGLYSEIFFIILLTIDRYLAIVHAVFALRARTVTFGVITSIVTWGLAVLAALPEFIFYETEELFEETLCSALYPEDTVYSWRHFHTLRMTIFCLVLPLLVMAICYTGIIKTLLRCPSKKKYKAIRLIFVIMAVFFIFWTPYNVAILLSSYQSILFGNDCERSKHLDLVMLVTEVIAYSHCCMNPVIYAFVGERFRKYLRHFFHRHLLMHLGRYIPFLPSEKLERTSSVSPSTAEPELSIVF
T4 sequence (P27361 whole entry): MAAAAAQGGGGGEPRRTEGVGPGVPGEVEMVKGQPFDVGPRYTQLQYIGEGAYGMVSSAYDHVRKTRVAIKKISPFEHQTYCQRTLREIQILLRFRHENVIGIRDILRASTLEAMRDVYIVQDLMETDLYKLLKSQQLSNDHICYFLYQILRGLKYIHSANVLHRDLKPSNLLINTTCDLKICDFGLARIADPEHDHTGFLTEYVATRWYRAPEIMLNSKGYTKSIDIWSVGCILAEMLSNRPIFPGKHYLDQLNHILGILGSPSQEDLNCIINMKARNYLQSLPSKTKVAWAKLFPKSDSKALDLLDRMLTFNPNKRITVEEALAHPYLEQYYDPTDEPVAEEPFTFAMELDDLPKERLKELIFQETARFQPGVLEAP
T1 sequence (P37023 202-492 limits assumed): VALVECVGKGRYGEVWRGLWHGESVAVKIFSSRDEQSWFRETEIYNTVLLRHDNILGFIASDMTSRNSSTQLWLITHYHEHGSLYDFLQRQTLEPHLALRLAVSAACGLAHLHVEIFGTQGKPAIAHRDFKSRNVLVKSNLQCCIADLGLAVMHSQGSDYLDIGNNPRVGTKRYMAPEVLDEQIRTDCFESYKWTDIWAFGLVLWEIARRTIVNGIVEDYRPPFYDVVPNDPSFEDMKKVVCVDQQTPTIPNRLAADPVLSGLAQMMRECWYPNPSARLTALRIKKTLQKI

On to `CCc1ccc2c(c1)C1(NN=C(c3cccc4ccccc34)S1)C(=O)N2` (stereo not shown) [OGM1, 5-ethyl-5′-naphthalen-1-ylspiro[1H-indole-3,2′-3H-1,3,4-thiadiazole]-2-one], for which the remaining binding at 10 µM in assay [1] was 100%; in assay [2], 92%; in assay [3], 82%; in [4], 100%; in [5] it was 100%; in [6], 100%. In addition, the remaining binding at 10 µM in assay [7] stood at 82%; in [8] it was 100%; in assay [9], 100%; in assay [10], 83%; in [11], 94%; in assay [12], 70%. Further, the remaining binding at 10 µM came to 62% in [13]; 55% in assay [14]; 96% in assay [15]; 100% in assay [16]; 100% in assay [17]; 72% in assay [18]. The remaining binding at 10 µM in assay [19] and in assay [20] was 100% each time. Also, the Antagonism in assay [21] (10 uM) was 1; in assay [22] (10 uM) it was −9.9; in assay [23] (10 uM), −12.1; in [24] (10 uM), 23; in assay [25] (10 uM), −17.2; in assay [26] (10 uM) it was −2.4. The Antagonism in assay [27] (10 uM) stood at 5.4; in assay [28] (10 uM) it was 5.8; in [29] (10 uM), 0.9. Further, the Agonism in assay [21] (12.5 uM) was 0.1; in assay [22] (12.5 uM), 0.8; in [23] (12.5 uM), 0.3; in assay [24] (12.5 uM) it was −0.4; in [25] (12.5 uM), 2.1; in [26] (12.5 uM), 0.7. Moreover, the Agonism in [27] (12.5 uM) was −0.8; in assay [28] (12.5 uM), 0.9; in assay [29] (12.5 uM) it was 1.8.
Take `CCc1ccc2c(c1)C1(NN=C(c3ccccc3)S1)C(=O)N2` (stereo not shown) [OGM2]: in [30], the SRE-luciferase activity entry was “reduced the level of luciferase activity”. Also, the migration result in [31] is given as “inhibited migration”.
